{
  "source": "patent US20250017889A1",
  "about": "“INHIBITORS OF P1B-TYPE ATPASES” (THE CURATORS OF THE UNIVERSITY OF MISSOURI, priority 2021, published 2025)",
  "key": {"LOX activity": {"test_system": "LOX activity", "assay": "LOX activity secreted into conditioned media of cancer cells", "type": "cell-based", "conditions": "5 μM, 4 days"}, "human ATP7A (hATP7A)": {"target": "T1, human ATP7A (hATP7A) (Homo sapiens, UniProt Q04656)", "T1 construct": "expressed in transfected cells; host or cells: B16 melanoma ATP7A^KO cells (mouse), transient transfection", "T1 sequence (Q04656 1-1500)": "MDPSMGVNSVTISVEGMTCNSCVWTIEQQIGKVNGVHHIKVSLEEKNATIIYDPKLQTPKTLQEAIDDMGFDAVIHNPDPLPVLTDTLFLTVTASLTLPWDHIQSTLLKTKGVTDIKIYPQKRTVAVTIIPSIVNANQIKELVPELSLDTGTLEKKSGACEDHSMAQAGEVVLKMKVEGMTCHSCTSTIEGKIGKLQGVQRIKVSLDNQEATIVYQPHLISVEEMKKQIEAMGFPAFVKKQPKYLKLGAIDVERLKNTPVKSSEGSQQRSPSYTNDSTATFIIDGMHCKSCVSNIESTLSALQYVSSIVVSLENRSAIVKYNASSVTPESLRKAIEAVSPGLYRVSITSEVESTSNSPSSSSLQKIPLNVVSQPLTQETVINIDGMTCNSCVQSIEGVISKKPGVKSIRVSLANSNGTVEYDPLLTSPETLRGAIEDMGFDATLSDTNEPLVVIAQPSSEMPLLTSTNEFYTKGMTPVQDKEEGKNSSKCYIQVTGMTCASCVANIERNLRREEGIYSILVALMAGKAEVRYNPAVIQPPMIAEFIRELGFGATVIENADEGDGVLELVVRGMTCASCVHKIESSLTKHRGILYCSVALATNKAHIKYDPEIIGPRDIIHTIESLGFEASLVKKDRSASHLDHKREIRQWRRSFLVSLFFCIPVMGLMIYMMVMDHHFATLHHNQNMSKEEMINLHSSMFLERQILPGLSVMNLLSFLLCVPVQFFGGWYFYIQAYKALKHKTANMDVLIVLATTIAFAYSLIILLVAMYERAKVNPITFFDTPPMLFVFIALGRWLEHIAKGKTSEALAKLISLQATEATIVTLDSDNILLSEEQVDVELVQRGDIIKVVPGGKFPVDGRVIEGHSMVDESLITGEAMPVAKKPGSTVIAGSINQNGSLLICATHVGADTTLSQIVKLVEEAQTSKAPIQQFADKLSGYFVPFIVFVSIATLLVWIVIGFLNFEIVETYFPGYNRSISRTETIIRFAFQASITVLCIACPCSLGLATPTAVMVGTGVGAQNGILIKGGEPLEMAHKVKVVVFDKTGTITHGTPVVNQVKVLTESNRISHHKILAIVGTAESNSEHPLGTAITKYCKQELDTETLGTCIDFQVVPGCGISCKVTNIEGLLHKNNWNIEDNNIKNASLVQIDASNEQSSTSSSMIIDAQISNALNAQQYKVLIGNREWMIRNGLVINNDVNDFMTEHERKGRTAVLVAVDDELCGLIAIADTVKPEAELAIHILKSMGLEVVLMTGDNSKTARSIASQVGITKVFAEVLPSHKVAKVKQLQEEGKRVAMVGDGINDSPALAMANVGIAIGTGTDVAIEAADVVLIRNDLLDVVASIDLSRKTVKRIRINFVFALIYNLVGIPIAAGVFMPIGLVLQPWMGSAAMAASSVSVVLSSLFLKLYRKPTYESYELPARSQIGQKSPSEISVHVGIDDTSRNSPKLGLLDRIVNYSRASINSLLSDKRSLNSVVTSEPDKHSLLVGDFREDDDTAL", "assay": "Tyrosinase activation in B16 ATP7A^KO cells transfected with human ATP7A", "type": "cell-based", "conditions": "10 μM, 24 h, ATP7A^KO melanoma cells", "source_text": "Prior studies have shown that exogenously expressed ATP7B can activate tyrosinase in cells lacking ATP7A. For these studies, a B16 melanoma cell model was used in which tyrosinase activity can be detected by in situ oxidation of L-DOPA to DOPAchrome (10A). As shown earlier, B16 cells deleted for the ATP7A gene (ATP7A^KO) completely lack tyrosinase activity (10B). […] Quantification of tyrosinase activity in these cells is shown (10G). Data represent mean±SEM; ****p<0.0001 of three independent replicates."}, "GFP alone": {"test_system": "GFP alone", "assay": "Microscale thermophoresis (MST), GFP alone as negative control", "type": "binding", "source_text": "Coordinating residues D935 and E798 are predicted to bind copper during transport."}, "in vitro": {"assay": "in vitro", "type": "cell-based", "conditions": "mouse", "procedure": "To test this hypothesis, a control compound was generated in which the sulfur atom in the thioamide was replaced with oxygen to generate a corresponding amide (MKV3-D1). […] 20C is a graph of the relationship between tyrosinase activity and compound concentration. […] 20D is a graph of the relationship between the survival of 4T1 breast cancer cells and compound concentration in the presence or absence of 10 μM copper.\nInitial structural analysis focused on the importance of the sulfur in MKV3. […] It was thought that MKV3 may provide a coordinating Cu(I) ligand as a mechanism of preventing copper movement into the channel domain. To test this hypothesis, a control compound was generated in which the sulfur atom in the thioamide was replaced with oxygen to generate a corresponding amide (MKV3-D1). […] Using another assay of ATP7A inhibition, the ability of MKV3-D1 to sensitize 4T1 breast cancer cells to copper was tested."}, "[1]": {"assay": "Cytotoxicity in B16 cells by MTT and crystal violet assays", "type": "cell-based", "conditions": "mouse", "source_text": "This is consistent with lower affinity of MKV1 for ATP7A (FIG. 6E)."}},
  "data": [
    {"smiles": "N#CC(C(=O)Nc1cccc(C(F)(F)F)c1)C(=S)Nc1ccccc1Cl", "note": "(stereo not drawn) [MKV3]", "values": [
      {"measurement": "LOX activity in conditioned media", "setting": "LOX activity; 4T1 breast cancer cells", "result": "reduction in LOX activity"},
      {"measurement": "LOX activity in conditioned media", "setting": "LOX activity; LLC lung cancer cells", "result": "reduction in LOX activity"},
      {"measurement": "activation of tyrosinase activity by ATP7A", "setting": "human ATP7A (hATP7A)", "result": "prevented activation of tyrosinase activity"},
      {"measurement": "binding to GFP alone", "setting": "GFP alone", "result": "not to GFP alone"},
      {"measurement": "CC50", "setting": "in vitro", "result": 63.1, "unit": "µM"},
      {"measurement": "CC50", "setting": "[1]", "result": "~75", "unit": "µM"}
    ]}
  ]
}
